{"source": "patent US20050282743A1", "about": "“Molecular interactions in cells” (Arbor Vita Corporation, priority 2001, published 2005)", "assay_type_in_all_cases": "binding", "key": {"[1]": {"target": "T1, PDZ protein (GST-PDZ fusion) (Homo sapiens, UniProt P29475)", "T1 construct": "made in house; host or cells: E. coli (DH5alpha, BL21 or JM109)", "T1 sequence (P29475 whole entry, the tested form may be a part)": "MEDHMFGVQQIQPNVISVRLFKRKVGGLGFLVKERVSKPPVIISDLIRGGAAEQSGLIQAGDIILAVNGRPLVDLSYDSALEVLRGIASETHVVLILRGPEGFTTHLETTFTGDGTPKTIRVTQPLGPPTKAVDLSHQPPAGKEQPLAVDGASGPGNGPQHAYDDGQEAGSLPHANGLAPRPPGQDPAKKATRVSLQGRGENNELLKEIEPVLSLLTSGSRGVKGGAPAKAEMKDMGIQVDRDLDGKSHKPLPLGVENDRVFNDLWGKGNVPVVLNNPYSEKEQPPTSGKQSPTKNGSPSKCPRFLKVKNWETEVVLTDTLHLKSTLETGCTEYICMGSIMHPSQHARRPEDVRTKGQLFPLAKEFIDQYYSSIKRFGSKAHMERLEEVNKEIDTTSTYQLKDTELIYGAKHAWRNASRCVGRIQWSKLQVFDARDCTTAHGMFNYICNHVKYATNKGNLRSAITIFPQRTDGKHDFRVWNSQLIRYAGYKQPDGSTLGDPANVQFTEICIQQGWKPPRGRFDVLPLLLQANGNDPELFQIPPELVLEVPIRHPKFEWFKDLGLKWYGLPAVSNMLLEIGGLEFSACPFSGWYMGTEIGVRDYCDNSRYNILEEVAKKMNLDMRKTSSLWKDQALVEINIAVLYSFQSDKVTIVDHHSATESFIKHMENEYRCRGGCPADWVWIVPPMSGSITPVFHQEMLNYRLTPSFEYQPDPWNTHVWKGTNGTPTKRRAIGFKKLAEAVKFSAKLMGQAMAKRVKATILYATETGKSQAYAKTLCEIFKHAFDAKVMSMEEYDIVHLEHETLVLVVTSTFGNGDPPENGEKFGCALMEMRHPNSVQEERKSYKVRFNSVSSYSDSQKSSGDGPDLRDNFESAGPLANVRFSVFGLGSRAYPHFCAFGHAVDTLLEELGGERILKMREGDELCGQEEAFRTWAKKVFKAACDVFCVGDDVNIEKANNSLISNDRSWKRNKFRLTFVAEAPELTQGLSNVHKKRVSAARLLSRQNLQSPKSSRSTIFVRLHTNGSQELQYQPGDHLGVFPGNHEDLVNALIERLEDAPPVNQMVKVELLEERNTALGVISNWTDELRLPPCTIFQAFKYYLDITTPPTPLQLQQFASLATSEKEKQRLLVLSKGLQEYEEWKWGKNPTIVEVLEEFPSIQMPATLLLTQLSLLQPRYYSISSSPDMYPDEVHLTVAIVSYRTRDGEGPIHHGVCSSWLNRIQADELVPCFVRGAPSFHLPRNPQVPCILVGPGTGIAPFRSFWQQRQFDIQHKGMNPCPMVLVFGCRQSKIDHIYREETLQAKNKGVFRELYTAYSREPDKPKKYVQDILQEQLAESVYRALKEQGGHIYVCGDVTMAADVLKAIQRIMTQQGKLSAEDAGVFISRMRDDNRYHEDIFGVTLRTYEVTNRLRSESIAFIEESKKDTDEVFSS", "assay": "G' assay (10 uM PL peptide), results of TABLE 7 and TABLE 12", "conditions": "PDZ NOS1, PDZ Domain 1", "method_in_brief": "(§1)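 Same steps as the G-zero format, apart from a peptide concentration of 10 uM in place of 20 uM in step 2. Amino-terminally biotinylated PL peptides bind GST-PDZ fusions, and retained peptide is quantified by 450 nm absorbance.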"}, "[2]": {"target": "T2, PDZ protein (GST-PDZ fusion) (Homo sapiens, UniProt Q9BYB0)", "T2 construct": "made in house; host or cells: E. coli (DH5alpha, BL21 or JM109)", "T2 sequence (Q9BYB0 whole entry, the tested form may be a part)": "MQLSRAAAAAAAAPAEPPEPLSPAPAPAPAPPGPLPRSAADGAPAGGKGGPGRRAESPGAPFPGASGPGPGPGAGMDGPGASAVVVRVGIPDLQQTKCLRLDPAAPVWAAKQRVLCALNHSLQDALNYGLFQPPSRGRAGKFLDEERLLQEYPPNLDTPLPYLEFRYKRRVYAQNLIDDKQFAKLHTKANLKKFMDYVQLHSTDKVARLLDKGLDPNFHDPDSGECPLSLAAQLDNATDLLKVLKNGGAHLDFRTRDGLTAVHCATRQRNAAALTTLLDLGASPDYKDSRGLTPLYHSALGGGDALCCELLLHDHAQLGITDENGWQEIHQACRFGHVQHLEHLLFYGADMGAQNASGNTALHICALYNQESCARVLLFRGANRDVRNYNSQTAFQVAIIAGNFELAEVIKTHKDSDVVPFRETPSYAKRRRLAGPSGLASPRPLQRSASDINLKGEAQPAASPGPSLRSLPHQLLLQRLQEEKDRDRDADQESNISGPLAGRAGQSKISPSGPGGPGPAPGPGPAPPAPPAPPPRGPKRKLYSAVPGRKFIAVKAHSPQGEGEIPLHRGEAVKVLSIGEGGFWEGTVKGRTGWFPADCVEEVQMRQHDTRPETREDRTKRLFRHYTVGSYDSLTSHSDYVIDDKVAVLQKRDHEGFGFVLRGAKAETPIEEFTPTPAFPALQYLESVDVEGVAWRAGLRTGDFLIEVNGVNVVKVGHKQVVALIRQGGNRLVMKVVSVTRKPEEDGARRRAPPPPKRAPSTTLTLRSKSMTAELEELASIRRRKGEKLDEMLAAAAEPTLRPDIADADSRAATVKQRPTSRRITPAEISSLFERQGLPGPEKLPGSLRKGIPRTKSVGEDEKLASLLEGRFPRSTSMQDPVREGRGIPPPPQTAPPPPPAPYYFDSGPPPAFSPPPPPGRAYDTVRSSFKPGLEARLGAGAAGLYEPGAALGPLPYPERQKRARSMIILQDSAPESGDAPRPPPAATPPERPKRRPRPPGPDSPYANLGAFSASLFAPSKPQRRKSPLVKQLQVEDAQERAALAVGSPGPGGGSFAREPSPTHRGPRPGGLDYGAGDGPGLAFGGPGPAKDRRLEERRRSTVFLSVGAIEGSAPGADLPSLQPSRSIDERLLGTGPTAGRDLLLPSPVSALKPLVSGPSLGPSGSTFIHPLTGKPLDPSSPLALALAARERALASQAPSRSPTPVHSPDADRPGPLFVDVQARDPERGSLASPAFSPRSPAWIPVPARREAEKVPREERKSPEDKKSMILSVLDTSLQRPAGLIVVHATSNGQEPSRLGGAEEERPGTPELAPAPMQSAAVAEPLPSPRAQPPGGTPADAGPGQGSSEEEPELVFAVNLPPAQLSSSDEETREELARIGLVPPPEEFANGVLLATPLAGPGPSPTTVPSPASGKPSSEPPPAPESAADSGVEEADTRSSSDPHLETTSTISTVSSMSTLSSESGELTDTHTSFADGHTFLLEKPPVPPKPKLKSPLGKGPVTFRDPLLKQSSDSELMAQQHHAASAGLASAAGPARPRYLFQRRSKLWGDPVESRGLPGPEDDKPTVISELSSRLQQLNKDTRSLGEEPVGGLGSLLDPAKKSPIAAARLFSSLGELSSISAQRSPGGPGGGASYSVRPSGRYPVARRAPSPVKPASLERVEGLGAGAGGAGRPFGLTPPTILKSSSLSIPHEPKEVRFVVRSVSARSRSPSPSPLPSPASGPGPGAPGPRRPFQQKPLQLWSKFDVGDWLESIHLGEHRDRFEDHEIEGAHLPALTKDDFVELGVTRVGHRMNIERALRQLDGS", "assay": "G' assay (10 uM PL peptide), results of TABLE 7 and TABLE 12", "conditions": "PDZ SHANK3, PDZ Domain 1", "method_in_brief": "as §1"}, "[3]": {"target": "T3, KIAA0807(S) (PDZ Domain 1) (Homo sapiens, UniProt Q6P0Q8)", "T3 construct": "made in house; host or cells: E. coli (DH5alpha, BL21 or JM109)", "T3 sequence (Q6P0Q8 with tags, fused parts or gaps)": "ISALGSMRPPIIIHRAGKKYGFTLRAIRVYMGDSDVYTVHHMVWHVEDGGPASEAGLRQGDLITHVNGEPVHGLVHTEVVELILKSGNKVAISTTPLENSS", "assay": "G' assay and Kd titration, TABLE 12", "conditions": "A450 nm class of biotinylated PL peptide bound; 0 in conc columns = peptide 10 uM, protein 5 ug/ml"}, "[4]": {"target": "T4, PDZ protein (GST-PDZ fusion) (Homo sapiens, UniProt Q13424)", "T4 construct": "made in house; host or cells: E. coli (DH5alpha, BL21 or JM109)", "T4 sequence (Q13424 1-505)": "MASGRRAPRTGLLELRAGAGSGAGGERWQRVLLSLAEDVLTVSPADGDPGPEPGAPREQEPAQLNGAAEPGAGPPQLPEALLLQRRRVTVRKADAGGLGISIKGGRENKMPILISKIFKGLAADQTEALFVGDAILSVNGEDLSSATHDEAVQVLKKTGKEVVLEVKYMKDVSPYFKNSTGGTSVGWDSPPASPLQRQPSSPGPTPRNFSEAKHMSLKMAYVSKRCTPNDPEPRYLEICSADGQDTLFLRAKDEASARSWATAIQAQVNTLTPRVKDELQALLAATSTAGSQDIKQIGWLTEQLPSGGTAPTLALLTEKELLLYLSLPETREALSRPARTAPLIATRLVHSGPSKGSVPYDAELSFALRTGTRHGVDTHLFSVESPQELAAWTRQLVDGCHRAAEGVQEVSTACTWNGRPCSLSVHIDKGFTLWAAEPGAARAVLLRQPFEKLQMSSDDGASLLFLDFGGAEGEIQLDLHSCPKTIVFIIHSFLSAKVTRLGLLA", "assay": "G' assay (10 uM PL peptide), results of TABLE 7 and TABLE 12", "conditions": "PDZ Synt. 1 alpha, PDZ Domain 1", "method_in_brief": "as §1"}, "[5]": {"target": "T5, PDZ protein (GST-PDZ fusion) (Homo sapiens, UniProt Q9NSN8)", "T5 construct": "made in house; host or cells: E. coli (DH5alpha, BL21 or JM109)", "T5 sequence (Q9NSN8 1-517)": "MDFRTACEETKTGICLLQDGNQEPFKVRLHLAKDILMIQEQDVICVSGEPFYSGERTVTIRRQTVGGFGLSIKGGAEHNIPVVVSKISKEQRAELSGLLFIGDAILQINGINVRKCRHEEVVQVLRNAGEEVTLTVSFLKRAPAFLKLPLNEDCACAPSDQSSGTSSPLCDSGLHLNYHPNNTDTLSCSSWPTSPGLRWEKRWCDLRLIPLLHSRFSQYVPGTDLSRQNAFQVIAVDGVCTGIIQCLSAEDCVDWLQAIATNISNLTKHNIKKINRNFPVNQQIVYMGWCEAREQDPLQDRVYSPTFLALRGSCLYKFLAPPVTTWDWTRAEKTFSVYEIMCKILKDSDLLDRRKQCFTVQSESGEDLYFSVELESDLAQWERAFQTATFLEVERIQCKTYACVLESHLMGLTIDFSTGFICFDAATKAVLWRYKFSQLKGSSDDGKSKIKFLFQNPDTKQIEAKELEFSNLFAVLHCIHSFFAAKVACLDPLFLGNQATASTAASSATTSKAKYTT", "assay": "G' assay (10 uM PL peptide), results of TABLE 7 and TABLE 12", "conditions": "PDZ Syntrophin gamma-1, PDZ Domain 1", "method_in_brief": "as §1"}, "[6]": {"target": "T6, PDZ protein (GST-PDZ fusion) (Homo sapiens, UniProt Q9Y2H9)", "T6 construct": "made in house; host or cells: E. coli (DH5alpha, BL21 or JM109)", "assay": "G' assay (10 uM PL peptide), results of TABLE 7 and TABLE 12", "conditions": "PDZ KIAA0973, PDZ Domain 1", "method_in_brief": "as §1"}, "[7]": {"target": "T7, PDZ protein (GST-PDZ fusion) (Homo sapiens, UniProt Q8TEW0)", "T7 construct": "made in house; host or cells: E. coli (DH5alpha, BL21 or JM109)", "assay": "G' assay (10 uM PL peptide), results of TABLE 7 and TABLE 12", "conditions": "PDZ PAR3, PDZ Domain 3", "method_in_brief": "as §1"}, "[8]": {"target": "T8, PDZ protein (GST-PDZ fusion) (Homo sapiens, UniProt Q9C0E4)", "T8 construct": "made in house; host or cells: E. coli (DH5alpha, BL21 or JM109)", "T8 sequence (Q9C0E4 whole entry, the tested form may be a part)": "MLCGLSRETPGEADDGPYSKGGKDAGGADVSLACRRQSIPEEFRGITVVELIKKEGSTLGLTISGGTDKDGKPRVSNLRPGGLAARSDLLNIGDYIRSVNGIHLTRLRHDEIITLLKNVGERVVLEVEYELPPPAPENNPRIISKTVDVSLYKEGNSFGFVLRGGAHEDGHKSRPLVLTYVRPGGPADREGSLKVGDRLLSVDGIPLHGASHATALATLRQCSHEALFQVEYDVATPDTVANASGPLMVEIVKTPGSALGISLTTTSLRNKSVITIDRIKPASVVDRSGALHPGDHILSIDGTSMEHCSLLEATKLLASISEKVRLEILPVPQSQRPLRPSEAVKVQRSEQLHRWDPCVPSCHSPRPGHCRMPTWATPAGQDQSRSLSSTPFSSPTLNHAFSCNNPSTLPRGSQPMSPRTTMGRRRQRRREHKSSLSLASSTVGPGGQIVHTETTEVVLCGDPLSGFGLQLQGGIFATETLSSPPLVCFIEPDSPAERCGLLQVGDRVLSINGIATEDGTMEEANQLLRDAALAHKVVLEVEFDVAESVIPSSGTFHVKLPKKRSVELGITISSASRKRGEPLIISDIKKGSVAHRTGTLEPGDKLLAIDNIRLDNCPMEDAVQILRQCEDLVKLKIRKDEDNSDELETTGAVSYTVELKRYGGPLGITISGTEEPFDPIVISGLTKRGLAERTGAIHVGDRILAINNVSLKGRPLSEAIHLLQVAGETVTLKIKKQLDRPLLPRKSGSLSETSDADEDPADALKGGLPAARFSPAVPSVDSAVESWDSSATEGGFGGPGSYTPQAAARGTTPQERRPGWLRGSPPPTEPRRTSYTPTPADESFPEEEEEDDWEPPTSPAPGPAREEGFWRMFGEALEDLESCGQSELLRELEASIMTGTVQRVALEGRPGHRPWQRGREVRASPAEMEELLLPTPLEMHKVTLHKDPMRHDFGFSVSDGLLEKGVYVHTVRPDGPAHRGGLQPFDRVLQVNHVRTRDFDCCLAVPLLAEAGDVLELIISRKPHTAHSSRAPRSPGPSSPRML", "assay": "G' assay (10 uM PL peptide), results of TABLE 7 and TABLE 12", "method_in_brief": "as §1"}}, "note": "Ends that are not written are not given here. Peptide text beside a SMILES is read from it. * marks the point of attachment. Biotin = O=C1N[C@H]2[C@H](CS[C@H]2CCCCC(=O)*)N1"}
{"compound": "CC(C)C[C@H](NC(=O)CNC(=O)[C@@H](NC(=O)[C@H](CO)NC(=O)[C@H](CC(N)=O)NC(=O)[C@H](Cc1ccccc1)NC(=O)CNC(=O)[C@H](C)NC(=O)[C@H](C)NC(=O)[C@H](Cc1ccccc1)NC(=O)[C@@H](NC(=O)CCCC[C@@H]1SC[C@@H]2NC(=O)N[C@@H]21)[C@@H](C)O)[C@@H](C)O)C(=O)N1CCC[C@H]1C(=O)N[C@@H](Cc1c[nH]cn1)C(=O)N[C@@H](CO)C(=O)N[C@H](C(=O)N[C@H](C(=O)N[C@@H](CCCNC(=N)N)C(=O)N[C@H](C(=O)O)C(C)C)[C@@H](C)O)[C@@H](C)O", "note": "[Neuroligin] (Biotin-TFAAGFNSTGLPHSTTRV-OH; C-terminus assumed)", "values": [{"measurement": "Classification", "setting": "[1]", "value": "1 (A450 nm 0-1)"}, {"measurement": "Classification", "setting": "[2]", "value": "3 (A450 nm 2-3)"}, {"measurement": "Classification", "setting": "[3]", "value": "3 (A450 nm 2-3)"}]}
{"compound": "TQGFPGPATWRRISSLESEV", "values": [{"measurement": "Classification", "setting": "[1]", "value": "1 (A450 nm 0-1)"}, {"measurement": "Classification", "setting": "[4]", "value": "4 (A450 nm 3-4)"}, {"measurement": "Classification", "setting": "[5]", "value": "4 (A450 nm 3-4)"}, {"measurement": "Classification", "setting": "[6]", "value": "1 (A450 nm 0-1)"}]}
{"compound": "ELLQFCRTPNPALKNGQYWV (Biotin-ELLQFCRTPNPALKNGQYWV)", "values": [{"measurement": "Classification", "setting": "[1]", "value": "2 (A450 nm 1-2)"}, {"measurement": "Classification", "setting": "[7]", "value": "3 (A450 nm 2-3)"}, {"measurement": "Classification", "setting": "[8]; PDZ KIAA1719, PDZ Domain 6", "value": "5 (A450 nm of 4 more than 2× repeated)"}]}
{"compound": "CC[C@H](C)[C@H](NC(=O)[C@H](Cc1ccc(O)cc1)NC(=O)[C@@H](NC(=O)[C@@H]1CCCN1C(=O)[C@H](CCC(N)=O)NC(=O)[C@H](CCC(=O)O)NC(=O)[C@H](CCC(N)=O)NC(=O)[C@H](C)NC(=O)[C@@H](NC(=O)[C@H](CC(C)C)NC(=O)[C@H](CC(C)C)NC(=O)[C@H](CCCNC(=N)N)NC(=O)[C@H](Cc1ccc(O)cc1)NC(=O)[C@H](CCSC)NC(=O)[C@H](C)NC(=O)[C@H](C)NC(=O)[C@@H]1CCCN1C(=O)[C@H](CCSC)NC(=O)[C@@H](NC(=O)[C@H](CCCCN)NC(=O)CCCC[C@@H]1SC[C@@H]2NC(=O)N[C@@H]21)[C@@H](C)O)[C@@H](C)O)C(C)C)C(=O)O", "note": "[MINT-1] (Biotin-KTMPAAMYRLLTAQEQPVYI-OH; C-terminus assumed)", "values": [{"measurement": "Classification", "setting": "[1]", "value": "4 (A450 nm 3-4)"}, {"measurement": "Classification", "setting": "[7]", "value": "5 (A450 nm of 4 more than 2× repeated)"}]}
{"compound": "CC(C)C[C@H](NC(=O)[C@H](C)NC(=O)[C@@H](NC(=O)[C@@H](NC(=O)[C@H](Cc1c[nH]cn1)NC(=O)[C@H](CC(C)C)NC(=O)CNC(=O)[C@H](CCC(N)=O)NC(=O)CNC(=O)CNC(=O)[C@H](C)NC(=O)[C@H](C)NC(=O)[C@H](CCCNC(=N)N)NC(=O)[C@H](C)NC(=O)[C@H](CO)NC(=O)[C@H](CC(=O)O)NC(=O)[C@H](CC(=O)O)NC(=O)[C@H](Cc1c[nH]c2ccccc12)NC(=O)[C@H](C)NC(=O)CCCC[C@@H]1SC[C@@H]2NC(=O)N[C@@H]21)C(C)C)[C@@H](C)O)C(=O)O", "note": "[LPAP] (Biotin-AWDDSARAAGGQGLHVTAL-OH; C-terminus assumed)", "values": [{"measurement": "Classification", "setting": "[1]", "value": "1 (A450 nm 0-1)"}, {"measurement": "Classification", "setting": "[2]", "value": "3 (A450 nm 2-3)"}, {"measurement": "Classification", "setting": "[3]", "value": "5 (A450 nm of 4 more than 2× repeated)"}]}
{"compound": "CSCC[C@H](NC(=O)[C@H](C)NC(=O)[C@H](CCCNC(=N)N)NC(=O)CNC(=O)[C@@H](NC(=O)[C@H](Cc1c[nH]c2ccccc12)NC(=O)[C@H](CCCNC(=N)N)NC(=O)CNC(=O)CCCC[C@@H]1SC[C@@H]2NC(=O)N[C@@H]21)[C@@H](C)O)C(=O)N[C@@H](CO)C(=O)N[C@@H](C)C(=O)N[C@@H](Cc1c[nH]c2ccccc12)C(=O)N[C@@H](CCCCN)C(=O)N1CCC[C@H]1C(=O)N[C@H](C(=O)N[C@@H](CCCNC(=N)N)C(=O)N[C@@H](CCCNC(=N)N)C(=O)N[C@@H](CCC(=O)O)C(=O)N[C@H](C(=O)N[C@@H](CCC(=O)O)C(=O)N[C@H](C(=O)O)C(C)C)[C@@H](C)O)[C@@H](C)O", "note": "[HPV E6 #35 (modified)] (Biotin-GRWTGRAMSAWKPTRRETEV-OH; C-terminus assumed)", "values": [{"measurement": "Classification", "setting": "[1]", "value": "1 (A450 nm 0-1)"}, {"measurement": "Classification", "setting": "[4]", "value": "5 (A450 nm of 4 more than 2× repeated)"}, {"measurement": "Classification", "setting": "[8]; PDZ KIAA1719, PDZ Domain 5", "value": "1 (A450 nm 0-1)"}, {"measurement": "Classification", "setting": "[5]", "value": "4 (A450 nm 3-4)"}, {"measurement": "Classification", "setting": "[6]", "value": "2 (A450 nm 1-2)"}]}
{"compound": "CC[C@H](C)[C@H](NC(=O)[C@H](CC(=O)O)NC(=O)[C@H](CCC(=O)O)NC(=O)[C@H](CCCNC(=N)N)NC(=O)[C@@H](NC(=O)CCCC[C@@H]1SC[C@@H]2NC(=O)N[C@@H]21)[C@@H](C)O)C(=O)N[C@@H](Cc1ccc(O)cc1)C(=O)N[C@H](C(=O)N[C@@H](CC(N)=O)C(=O)N[C@@H](Cc1ccc(O)cc1)C(=O)N1CCC[C@H]1C(=O)N[C@H](C(=O)N[C@@H](Cc1ccccc1)C(=O)N[C@@H](CO)C(=O)N[C@@H](CCCNC(=N)N)C(=O)N[C@@H](CCCNC(=N)N)C(=O)N1CCC[C@H]1C(=O)N[C@@H](CCCCN)C(=O)N[C@H](C(=O)N[C@@H](CCCNC(=N)N)C(=O)N[C@H](C(=O)O)C(C)C)[C@@H](C)O)[C@@H](C)O)C(C)C", "note": "[DNAM-1] (Biotin-TREDIYVNYPTFSRRPKTRV-OH; C-terminus assumed)", "values": [{"measurement": "Classification", "setting": "[1]", "value": "1 (A450 nm 0-1)"}, {"measurement": "Classification", "setting": "[2]", "value": "2 (A450 nm 1-2)"}]}
